Measurements: patent publication US9295672B2, “Optically active pyrazolylaminoquinazoline, and pharmaceutical compositions and methods of use thereof” (Ambit Biosciences Corp., priority 2010, dated 2016)

What was measured:
[1] = target: phosphodiesterase PDE4; experiment: Inhibition of phosphodiesterase PDE4; assay type: biochemical; details: human U937 cells; read-out: IC50 against phosphodiesterase PDE4
Description: Human U937 cells were used in this assay. The final DMSO concentration in the assay was about 1%. The assay was pre-incubated at 25° C. for 15 min and then incubated at 25° C. for 20 min in an incubation buffer (50 mM Tris-HCl, pH 7.5, 5 mM MgCl2). The assay was quantitated by measuring the amount of [^3H]adenosine.

[2] = Solubility tests of the ketone substrate in solvents; assay type: physicochemical; details: 20 ° C.
Description: Solubility tests were conducted by adding (4-fluorophenyl)(4-(5-methyl-4H-pyrazol-3-ylamino)quinazolin-2-yl)methanone in small portions to a number of solvents until a suspended solid persisted. A number of solvents were selected for this study based on their suitability as co-solvents for the reaction.

[3] = Solubility tests of ketone, alcohol and their mixture in IPA/DMSO/water at 70° C.; assay type: physicochemical; details: 1.113 g of material at 70° C., IPA 4 mL, Water 0.5 mL
Description: The aim of these experiments was to find the minimum amount of DMSO necessary to dissolve reagents and create homogeneous reaction mixture. One tube contained starting material, the second one a mixture of starting material and product (1/1) to simulate situation when reaction is half complete and the third tube contained product. Experiments were started in 5 mL of IPA/DMSO/water (8/1/1), where none of the mixtures was soluble at 70° C. DMSO was then added dropwise until full solubility could be reached. […] At these conditions, starting material was still partially undissolved. This experiment was used to determine the necessary amounts of DMSO to create a homogeneous reaction mixture (upon keeping the original quantities of IPA and water).

[4] = target: human adenosine A3 receptor (Homo sapiens (Human), UniProt P0DMS8); experiment: Adenosine A3 receptor radioligand binding assay ([125I] AB-MECA)
human adenosine A3 receptor, sequence (P0DMS8 whole entry): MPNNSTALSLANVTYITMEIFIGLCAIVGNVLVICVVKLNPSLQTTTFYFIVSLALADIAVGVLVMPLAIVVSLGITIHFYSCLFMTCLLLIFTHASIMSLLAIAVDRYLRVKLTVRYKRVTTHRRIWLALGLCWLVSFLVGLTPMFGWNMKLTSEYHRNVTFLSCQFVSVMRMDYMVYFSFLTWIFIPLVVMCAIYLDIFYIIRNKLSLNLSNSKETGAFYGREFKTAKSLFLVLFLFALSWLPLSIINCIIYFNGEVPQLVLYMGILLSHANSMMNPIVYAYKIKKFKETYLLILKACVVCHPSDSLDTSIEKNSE
Description: Incubations of a range of concentration of each compound were carried out in duplicates for 1 h at 25° C. in 25 mM HEPES, pH 7.4, 5 mM MgCl2, 1 mM CaCl2, 0.1% BSA, in the presence of 0.5 nM [^125I] AB-MECA. Non-specific binding was determined in the presence of 1 μM IB-MECA.

[5] = cynomolgus monkey, in vivo

Compound | Result (solubility test) ([3]; DMSO 0.5 mL) | Result (solubility test) ([3]; DMSO 5.5 mL) | Result (solubility test) ([3]; DMSO 7.5 mL) | Hill Coefficient [4] | further results
Cc1cc(Nc2nc(C(O)c3ccc(F)cc3)nc3ccccc23)n[nH]1 (racemic) [Racemate] | – | – | – | – | IC50 [1]: 2530 nM
CC1=NN=C(Nc2nc(C(=O)c3ccc(F)cc3)nc3ccccc23)C1 [(4-fluorophenyl)(4-(5-methyl-4H-pyrazol-3-ylamino)quinazolin-2-yl)methanone] | – | – | – | – | Solubility ([2]; solvent DMSO): 12000 to 149000 µg/mL; Solubility ([2]; solvent EtOAc): <6000 µg/mL; Solubility ([2]; solvent IPA-H2O (9:1)): <7000 µg/mL; Solubility ([2]; solvent PhMe): <9000 µg/mL; Solubility ([2]; solvent THF): <17000 µg/mL
CCO [Alcohol] | Not dissolved | Dissolved | Dissolved | – | –
Cc1cc(Nc2nc(C(=O)c3ccc(F)cc3)nc3ccccc23)n[nH]1 [Ketone] | Not dissolved | Not dissolved | Not dissolved | – | –

More lines, main results first:

Result (solubility test) ([3]; DMSO 0.5 mL) | Result (solubility test) ([3]; DMSO 5.5 mL) | Result (solubility test) ([3]; DMSO 7.5 mL) | Hill Coefficient [4] | Compound | further results
– | – | – | 1.14 | Cc1cc(Nc2nc([C@H](O)c3ccc(F)cc3)nc3ccccc23)n[nH]1 [R-isomer] | share of the Cmax and AUC values determined for the racemic compound ([5]; male): over 85%
– | – | – | 0.811 | Cc1cc(Nc2nc([C@@H](O)c3ccc(F)cc3)nc3ccccc23)n[nH]1 [S-isomer] | proportion of both enantiomers in plasma ([5]; po): almost equal proportions
